Laboratory results taken from US6573282B1 (priority 1995, dated 2003).
“And” between values parts separate entries of the source, which are not always exact repeats. Equal entries are not always repeated. “Also recorded” adds a separate entry of the source. Structures can show the parent of a compound that is named as a salt. Where two headings read alike, the source gives them in different places.

Legend:
[1] = tested on: yeast-injected left hind paw; test: Randall-Selitto assay, yeast-induced inflammation, paw pressure threshold; type: in vivo, rat; conditions: four hours after yeast, n=10
Excerpt: Air pressure from an air line is admitted through a needle valve to a syringe into a pressure gauge which is connected by a T-tube. The syringe is mounted with a plunger downward, to which is connected a short bullet-shaped wooden peg. The pressure is applied through the wooden tip to the plantar surface of the rat's foot at a specified rate of mm Hg per second. The end point is said to have been reached when the rat starts struggling.
Typically, rats, such as albino rats (120-170 g) of the Charles River Sprague-Dawley strain, or other laboratory strain are used. Hyperalgesia [inflammation] is produced by the injection of 0.1 ml of a 20% suspension of Brewer's yeast into the plantar surface of the rat's hind foot. Thresholds can be determined using a modified apparatus described in Winter and Flataker [(1965) J. Pharm. Exp. Ther. 148:373]. The pain threshold is measured as the pressure in mm Hg required to induce the desired response [a sharp audible squeak and/or struggle] when pressure is applied to the foot. Air pressure from an air line [or other source, such as a vice] is admitted through a needle valve to a 20 ml glass syringe and to a pressure gauge. Pressure is applied to the foot of the rat at a selected rate. The agent compound to be tested is administered typically 2 hours after the yeast injection and threshold response is determined. […] Analgesic activity was determined in terms of the percentage of inhibition of response:
Inhibition (%)=Threshold of the treated group−Threshold of the control group/Threshold of the control group×100
A Randall-Selitto assay [see, Randall et al. (1957) Arch. Int. Pharmacodyn.
Each rat was injected with 100 μl of a 20% yeast solution into the plantar surface of the left hind paw. […] Control rats were treated with 10% DMSO alone [n=20]. The pain thresholds of the inflamed and non-inflamed paws were measured by application of a pressure stimulus to the paw and the paw pressure threshold in gram [g] was recorded.

[2] = tested on: acetic acid-induced writhing; conditions: mice, intraparenterally (Takasuna et al. 1994); cited from earlier work
acute pain models = conditions: given systemically; tail clip and hot plate tail withdrawal tests (Stahl et al., Shriver et al.); cited from earlier work
catalepsy = test: Catalepsy: time to dismount from a 4 cm high bar after IM injection; conditions: for Time to Dismount from Bar (sec) Before Drug: before drug (baseline); for Time to Dismount from Bar (sec) Before Drug / Time to Dismount from Bar (sec) After Drug Treatment (15 min): individual rats and x ± SE; for catalepsy: unanesthetized rats, IM morphine 3 mg, loperamide 0.5 mg
[3] = tested on: formalin-induced nociception; test: Formalin-induced flinching (early and late/tonic phase), intrapaw injection; type: in vivo, rat; conditions: for % Antagonism of Late Phase Flinching: 10 minutes prior to formalin, mean ± SEM; for A50, antinociception in the second phase of flinching: i.paw injection; for Formalin-Induced Flinching (Late Phase) % Maximal Efficacy / Formalin-Induced Flinching (Late Phase) ED50: intrapaw
[4] = tested on: carrageenan or yeast inflammatory stimulus; test: Separate tests using carrageenan or yeast as the inflammatory stimulus; type: in vivo
human δ receptor = human δ receptor (Homo sapiens, UniProt P41143); test: Opiate receptor binding, δ
human μ opiate receptors = biological target: T1, human μ opiate receptors (Homo sapiens, UniProt P35372); test: biochemical; type: binding
T1 construct: expressed in transfected cells; host or cells: CHO cells

human κ receptor = human κ receptor (Homo sapiens, UniProt P41145); test: biochemical; type: binding
Chain of human κ receptor (P41145 whole entry): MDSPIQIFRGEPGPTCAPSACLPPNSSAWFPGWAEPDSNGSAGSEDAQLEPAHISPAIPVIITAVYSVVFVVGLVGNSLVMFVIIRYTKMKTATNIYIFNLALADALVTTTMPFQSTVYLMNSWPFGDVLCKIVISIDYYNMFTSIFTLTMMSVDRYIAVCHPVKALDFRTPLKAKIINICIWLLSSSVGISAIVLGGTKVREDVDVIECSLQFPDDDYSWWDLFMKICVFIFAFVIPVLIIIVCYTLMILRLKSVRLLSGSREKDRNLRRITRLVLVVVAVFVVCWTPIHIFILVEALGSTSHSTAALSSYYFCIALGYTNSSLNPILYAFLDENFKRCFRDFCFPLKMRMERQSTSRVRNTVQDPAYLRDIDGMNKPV

T1 sequence (P35372 whole entry): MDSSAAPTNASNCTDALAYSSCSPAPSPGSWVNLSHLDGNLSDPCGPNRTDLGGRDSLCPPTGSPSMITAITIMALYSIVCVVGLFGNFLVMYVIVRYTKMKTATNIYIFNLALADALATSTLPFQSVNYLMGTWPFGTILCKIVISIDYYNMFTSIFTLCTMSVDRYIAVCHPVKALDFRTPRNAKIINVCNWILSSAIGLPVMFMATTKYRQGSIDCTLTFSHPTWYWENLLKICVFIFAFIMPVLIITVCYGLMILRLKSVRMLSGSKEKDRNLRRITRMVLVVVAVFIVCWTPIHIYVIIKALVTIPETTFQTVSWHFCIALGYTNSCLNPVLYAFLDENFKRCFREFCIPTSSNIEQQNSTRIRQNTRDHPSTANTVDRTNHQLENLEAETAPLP
Chain of human δ receptor (P41143 whole entry): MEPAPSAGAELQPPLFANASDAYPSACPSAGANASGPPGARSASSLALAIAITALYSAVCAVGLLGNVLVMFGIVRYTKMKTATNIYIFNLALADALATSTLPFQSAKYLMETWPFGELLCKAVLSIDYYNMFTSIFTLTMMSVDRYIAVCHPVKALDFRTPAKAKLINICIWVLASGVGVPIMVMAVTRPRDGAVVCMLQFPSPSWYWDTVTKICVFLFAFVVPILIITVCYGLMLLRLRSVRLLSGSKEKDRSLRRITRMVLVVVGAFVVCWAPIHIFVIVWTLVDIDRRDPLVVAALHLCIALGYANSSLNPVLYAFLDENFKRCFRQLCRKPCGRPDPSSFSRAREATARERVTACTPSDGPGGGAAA

Question: Which “Paw Pressure Threshold” value ([1]; dose 10 μg/100 μl/rat in 10% DMSO) does the source give for `CN(C)C(=O)C(CCN1CCC(O)(c2ccc(Cl)cc2)CC1)(c1ccccc1)c1ccccc1` [loperamide, 4-(p-chlorophenyl)-4-hydroxy-N-N-dimethyl-α,α-diphenyl-1-piperidinebutyramide hydrochloride] here?
Answer: 66 ± 15 g

Question: And the “Paw Pressure Threshold” value ([1]; dose 50 μg/100 μl/rat in 10% DMSO)?
Answer: 124 ± 29 g

Question: What about the “Paw Pressure Threshold” value ([1]; dose 250 μg/100 μl/rat in 10% DMSO) of the same molecule?
Answer: 153 ± 25 g

Question: What about the acetic acid-induced writhing [2] of the same molecule?
Answer: suppression

Question: What about the “analgesic effects in acute pain models” value (acute pain models) of the same molecule?
Answer: little or no analgesic effects

Question: And the “Time to Dismount from Bar (sec) Before Drug” value (catalepsy; IM loperamide (0.5 mg) group, hydrochloride)?
Answer: 1 sec (4×) and 1 ± 0 sec

Question: And the “Time to Dismount from Bar (sec) After Drug Treatment (15 min)” value (catalepsy; IM loperamide (0.5 mg), hydrochloride)?
Answer: 1 sec (2×) and 3 sec and 2 sec and 2 ± 1 sec

Question: And the catalepsy (catalepsy)?
Answer: no sign of catalepsy

Question: What about the “time prior to formalin injection at which administration was still efficacious” value ([3]; 100 μg i.paw) of the same molecule?
Answer: up to 6 hours

Question: And the “antinociception when injected into the paw contralateral to formalin” value ([3]; 100 μg i.paw, contralateral)?
Answer: failed to produce antinociception

Question: And the “antihyperalgesia when injected ipsilateral to formalin” value ([3]; 100 μg i.paw, ipsilateral)?
Answer: exhibited antihyperalgesia activity

Question: And the “late phase flinching behavior at the highest dose” value ([3]; 300 μg i.paw, hydrochloride)?
Answer: practically no flinching behavior; also recorded: Full efficacy

Question: And the “% Antagonism of Late Phase Flinching” value ([3]; dose 1 μg into the paw)?
Answer: 20 ± 7%

Question: And the “% Antagonism of Late Phase Flinching” value ([3]; dose 3 μg into the paw)?
Answer: 53 ± 10%

Question: And the “% Antagonism of Late Phase Flinching” value ([3]; dose 10 μg into the paw)?
Answer: 55 ± 15%

Question: And the “% Antagonism of Late Phase Flinching” value ([3]; dose 30 μg into the paw)?
Answer: 74 ± 10%

Question: What about the “% Antagonism of Late Phase Flinching” value ([3]; dose 100 μg into the paw) of the same molecule?
Answer: 75 ± 11%

Question: What about the “% Antagonism of Late Phase Flinching” value ([3]; dose 300 μg into the paw) of the same molecule?
Answer: 97 ± 2%

Question: What about the “effects on early phase flinching” value ([3]; doses of 0.3, 3, 30 and 300 μg) of the same molecule?
Answer: no significant effects

Question: And the “A50, antinociception in the second phase of flinching” value [3]?
Answer: 6 µg

Question: And the antihyperalgesic activity [4]?
Answer: demonstrated antihyperalgesic activity

Question: Which Ki (human δ receptor) does the source give for `O=C(N1CCCC1)C(CCN1CCC(O)(c2ccc(Cl)cc2)CC1)(c1ccccc1)c1ccccc1` [Compound 17B] here?
Answer: 68 nM

Question: What about the Ki (human μ opiate receptors) of the same molecule?
Answer: 2.2 nM

Question: What about the Ki (human κ receptor) of the same molecule?
Answer: 2230 nM

Question: And the “Formalin-Induced Flinching (Late Phase) % Maximal Efficacy” value [3]?
Answer: 86%

Question: What about the “Formalin-Induced Flinching (Late Phase) ED50” value [3] of the same molecule?
Answer: 4.9 μg i. paw

Question: Which “Formalin-Induced Flinching (Late Phase) % Maximal Efficacy” value [3] does the source give for “4-(4-chlorophenyl)-4-hydroxy-N,N-dimethyl-α,α-diphenyl-1-piperidinebutanamide methyl p-toluenesulfonate [Example 19]” here?
Answer: 69%

Question: What about the “Formalin-Induced Flinching (Late Phase) ED50” value [3] of the same molecule?
Answer: 93 μg i. paw

Question: With `CN1CC[C@]23c4c5ccc(O)c4O[C@H]2[C@@H](O)C=C[C@H]3[C@H]1C5.O=S(=O)(O)O` [morphine, morphine sulfate] as the molecule, how does the “Time to Dismount from Bar (sec) Before Drug” value (catalepsy; IM morphine (3 mg) group, sulfate) read?
Answer: 1 sec (3×) and 1 ± 1 sec and 2 sec

Question: What about the “Time to Dismount from Bar (sec) After Drug Treatment (15 min)” value (catalepsy; IM morphine (3 mg), sulfate) of the same molecule?
Answer: 37 s and 31 s and 37 ± 11 s and 29 s and 52 s

Question: What about the catalepsy (catalepsy) of the same molecule?
Answer: significantly more cataleptic

Question: And the “A50, antinociception in the second phase of flinching” value [3]?
Answer: 72 µg

Question: For `CNC(=O)C(CCN1CCC(O)(c2ccc(Cl)cc2)CC1)(c1ccccc1)c1ccccc1.Cl` [Example 18, 4-(p-chlorophenyl)-4-hydroxy-N-methyl-α,α-diphenyl-1-piperidinebutyramide hydrochloride], which Ki (human δ receptor) is on record?
Answer: 200 nM

Question: And the Ki (human μ opiate receptors)?
Answer: 1.1 nM

Question: And the Ki (human κ receptor)?
Answer: > 1000 nM

Question: What about the “Formalin-Induced Flinching (Late Phase) % Maximal Efficacy” value [3] of the same molecule?
Answer: 88%

Question: What about the “Formalin-Induced Flinching (Late Phase) ED50” value [3] of the same molecule?
Answer: 3.2 μg i. paw

Question: Which results are given for `N#CC(CCN1CCC(C(=O)O)(c2ccccc2)CC1)(c1ccccc1)c1ccccc1` [Difenoxin]?
Answer: Ki (human δ receptor): 56 nM; Ki (human μ opiate receptors): 13 nM; Formalin-Induced Flinching (Late Phase) % Maximal Efficacy [3]: 90%; Formalin-Induced Flinching (Late Phase) ED50 [3]: 33 μg i. paw

Question: Which Ki (human δ receptor) does the source give for `O=C(N1CCCCC1)C(CCN1CCC(O)(c2ccccc2)CC1)(c1ccccc1)c1ccccc1` [Compound 17C] here?
Answer: 15 nM

Question: What about the Ki (human μ opiate receptors) of the same molecule?
Answer: 2.5 nM

Question: And the Ki (human κ receptor)?
Answer: 4680 nM

Question: And the “Formalin-Induced Flinching (Late Phase) % Maximal Efficacy” value [3]?
Answer: 87%

Question: And the “Formalin-Induced Flinching (Late Phase) ED50” value [3]?
Answer: 19 μg i. paw

Question: For `CCN(C)C(=O)C(CCN1CCC(O)(c2ccc(Cl)cc2)CC1)(c1ccccc1)c1ccccc1` [Compound 17A], which Ki (human δ receptor) is on record?
Answer: 123 nM

Question: And the Ki (human μ opiate receptors)?
Answer: 4 nM

Question: And the Ki (human κ receptor)?
Answer: 1420 nM

Question: And the “Formalin-Induced Flinching (Late Phase) % Maximal Efficacy” value [3]?
Answer: 91%

Question: And the “Formalin-Induced Flinching (Late Phase) ED50” value [3]?
Answer: 4.8 μg i. paw

Question: For `CCOC(=O)C1(c2ccccc2)CCN(CCC(C#N)(c2ccccc2)c2ccccc2)CC1` [Deiphenoxylate], which Ki (human δ receptor; read-out: In Vitro Binding Affinities Human Opiate Receptors Ki, δ) is on record?
Answer: 315 nM

Question: What about the “Formalin-Induced Flinching (Late Phase) % Maximal Efficacy” value [3] of the same molecule?
Answer: 61%

Question: What about the “Formalin-Induced Flinching (Late Phase) ED50” value [3] of the same molecule?
Answer: 158 μg i. paw

Question: Which results are given for `CN(C)C(=O)C(CCN1CCC(O)(c2ccc(Cl)cc2)CC1)(c1ccccc1)c1ccccc1` [Ioperamide]?
Answer: Formalin-Induced Flinching (Late Phase) % Maximal Efficacy [3]: 97%; Formalin-Induced Flinching (Late Phase) ED50 [3]: 6 μg i. paw
